Assay results from patent US12378219B2, “Crystalline forms of a MAGL inhibitor” (H. LUNDBECK A/S, priority 2022, dated 2025).

Assays:
[1] = Dynamic vapor sorption (DVS); format: physicochemical; conditions: up to 90% RH
Experimental: Example 6: Procedures Used for Dynamic Vapor Sorption (DVS) Measurements
DVS was measured using SMS DVS advantage 01 changing the relative humidity from 0% RH to 95% RH in steps of 10% RH (5% between 90 and 95% RH). 2 cycles were performed using 1-10 mg, starting at 30% RH.

[2] = Relative thermodynamic stability of crystalline forms (DSC, XRPD after heating, slurry); format: physicochemical; conditions: form 1 converts to form 3 on heating to 150° C. and upon slurry
Experimental: In a vial Compound (I) form 1 (500 mg) were slurried in a 1:1 mixture of MeCN/water at room temperature for 24 hours. A small sample of wet precipitate was analyzed by XRPD showing the diffractogram of FIG. 3.
DSC was measured using a TA-Instruments Discovery-DSC calibrated at 5°/min to give the melting point as onset value. About 2 mg of sample is heated 5°/min under nitrogen flow in a closed pan with a pinhole in the lid.
Thus, Compound (I) Form 3 was formed upon heating of Compound (I) Form 1.

MAGL [3] = target: T1, MAGL (Mus musculus, UniProt O35678); experiment: In vivo MAGL inhibition, brain proteomes after oral gavage; conditions: 5 mg/kg oral gavage; C57Bl/6J; brain proteomes 4 h after administration
T1 construct: brain proteomes were prepared and analyzed according to previously established methods; from tissue; host or cells: brain of wild-type C57Bl/6J animals
T1 sequence (O35678 1-303): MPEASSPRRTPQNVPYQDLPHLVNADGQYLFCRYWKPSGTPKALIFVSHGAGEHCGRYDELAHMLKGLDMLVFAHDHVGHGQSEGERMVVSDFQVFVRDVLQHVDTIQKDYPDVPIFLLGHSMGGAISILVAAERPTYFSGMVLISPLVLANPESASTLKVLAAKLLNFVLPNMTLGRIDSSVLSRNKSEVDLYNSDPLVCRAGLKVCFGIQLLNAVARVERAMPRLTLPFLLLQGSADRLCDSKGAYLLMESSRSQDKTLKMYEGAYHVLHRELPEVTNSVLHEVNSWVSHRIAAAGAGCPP
Experimental: Compound (I) were administered to wild-type C57Bl/6J by oral gavage in a vehicle of polyethylene glycol. Each animal was sacrificed 4 h following administration and brain proteomes were prepared and analyzed according to previously established methods (See Niphakis, M. J., et al. (2011) ACS Chem. Neurosci. and Long, J. Z., et al. Nat. Chem. Biol. 5:37-44).

MAGL [4] = target: T2, MAGL (Homo sapiens, UniProt Q99685); experiment: In vitro competitive activity-based protein profiling (ABPP) in PC3 human cell membrane proteomes; format: biochemical; conditions: 30 min preincubation at 37° C., read-out: MAGL % inh. 1 μM (human PC3)
T2 construct: measuring fluorescent intensity of gel bands corresponding to MAGL; endogenous in cells; host or cells: PC3 human cells (membrane proteome)
T2 sequence (Q99685 1-303): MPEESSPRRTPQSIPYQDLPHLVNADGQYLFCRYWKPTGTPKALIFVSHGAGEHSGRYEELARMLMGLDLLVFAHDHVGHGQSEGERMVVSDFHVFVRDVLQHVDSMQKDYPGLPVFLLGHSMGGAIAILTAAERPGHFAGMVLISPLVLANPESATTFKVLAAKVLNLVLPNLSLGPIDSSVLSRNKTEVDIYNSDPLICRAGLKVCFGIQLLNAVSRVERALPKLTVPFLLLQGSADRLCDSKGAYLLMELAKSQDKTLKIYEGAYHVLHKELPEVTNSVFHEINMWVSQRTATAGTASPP
Experimental: In Vitro Competitive Activity-Based Protein Profiling
PC3 human cell membrane proteomes (50 μL, 2.0 mg/mL total protein concentration) were preincubated with varying concentrations of Compound (I) at 37° C. After 30 min, the ABPP probe JW912-Bodipy (1.0 μL, 50 μM in DMSO) was added and the mixture was incubated for 30 min at room temperature. Reactions were quenched with SDS loading buffer (15 μL—4×) and run on SDS-PAGE. Following gel imaging, serine hydrolase activity was determined by measuring fluorescent intensity of gel bands corresponding to MAGL using ImageJ 1.43u software. Intensities were converted to percent enzyme activity by normalizing to DMSO controls. IC50 values were determined by fitting percent enzyme activities to a non-linear regression, 4-parameter, sigmoidal dose response function in Prism GraphPad.

Compound	water uptake (DVS) [1]	thermodynamic stability relative to the other crystalline form [2]	MAGL % inh. 5 mg/kg (mouse) (MAGL [3]) [%]	inhibition at 1 µM (MAGL [4]) [%]
O=C(Nc1cccnn1)[C@H]1CC12CCN(C(=O)OC(C(F)(F)F)C(F)(F)F)CC2 [Compound (I) form 1, 1,1,1,3,3,3-Hexafluoropropan-2-yl (S)-1-(pyridazin-3-ylcarbamoyl)-6-azaspiro[2.5]octane-6-carboxylate form 1]	1.4 wt %			
O=C(Nc1cccnn1)[C@H]1CC12CCN(C(=O)OC(C(F)(F)F)C(F)(F)F)CC2 [Compound (I) form 3, 1,1,1,3,3,3-Hexafluoropropan-2-yl (S)-1-(pyridazin-3-ylcarbamoyl)-6-azaspiro[2.5]octane-6-carboxylate form 3]	around 0.1 wt %	thermodynamically more stable than Compound (I) Form 1		
O=C(Nc1cccnn1)[C@H]1CC12CCN(C(=O)OC(C(F)(F)F)C(F)(F)F)CC2 [Compound (I), 1,1,1,3,3,3-Hexafluoropropan-2-yl (S)-1-(pyridazin-3-ylcarbamoyl)-6-azaspiro[2.5]octane-6-carboxylate]			100	100
